For one assay, the system named is murine C2C12 myoblasts. Put plainly: Proliferation assay of C2C12 murine myoblasts (methylene blue, absorbance 655 nm). Format: cell-based. As for the experimental part: (§1) Myoblasts were seeded in 96-well tissue culture plates (Nunc, Roskilde, Denmark) at a cell density of 1000 cells per well in 200 μl of Dulbecco's modified Eagle's medium (DMEM, Invitrogen, California) supplemented with foetal bovine serum (FBS, 10% v/v, Invitrogen), penicillin (1×10^5 IU/l, Sigma, St Louis, Mo., USA) and streptomycin (100 mg/l, Sigma) buffered with NaHCO3 containing phenol red (7.22 nmol/l) as a pH indicator, and incubated overnight at 37° C. with 5% CO2. Medium was replaced with DMEM 10% FBS test medium containing 0, 0.001, 0.003, 0.01, 0.03, 0.1, 0.3, 1, 3 or 10 μg/ml oMSV65 in a semi-random arrangement of eight replicates (n=8) for each test medium. Plates were incubated at 37° C. with 5% CO2 for 72 hours, and then the medium was removed. The wells were washed with 200 μl of phosphate buffered saline (PBS, Oxoid, UK) and fixed with 100 μl of 10% formaldehyde, 0.9% NaCl solution for at least one hour. The fixative was then removed and 100 μl of 1% methylene blue stain in 0.01 M borate buffer (pH 8.5) was added to each well and incubated for 30 min at room temperature. Excess stain was removed by four sequential washes in borate buffer. Methylene blue was eluted from the cells by the addition of 100 μl 1:1 (v/v) ethanol/0.1 HCl. The plates were gently shaken and the absorbance was measured at 655 nm using a microplate photometer (FIGS. 3a and 3b).
as §1, with “0,” for “0, 0.001, 0.003,”, “0.01,” for “0.01, 0.03,”, “1” for “0.3, 1, 3”, “oMSV47” for “oMSV65”, “60” for “72”, “(FIG. 9).” for “(FIGS. 3a and 3b).”
Myoblasts were seeded in 96-well tissue culture plates (Nunc, Roskilde, Denmark) at a cell density of 1000 cells per well in […] of Dulbecco's modified Eagle's medium (DMEM, Invitrogen, California) supplemented with foetal bovine serum (FBS, 10% v/v, Invitrogen), penicillin (1×10^5 IU/l, Sigma, St Louis, Mo., USA) and streptomycin (100 mg/l, Sigma) buffered with NaHCO3 containing phenol red (7.22 nmol/l) as a pH indicator, and incubated overnight at 37° C. with 5% CO2. Medium was replaced with DMEM 2.5% FBS test medium containing 0, 0.01, 0.1, 1, 5 or 10 μg/ml of the respective peptides in a semi-random arrangement of eight replicates (n=8) for each test medium. Plates were incubated at 37° C. with 5% CO2 for 80 hours, and then the medium was removed. The wells were washed with 200 μl of phosphate buffered saline (PBS, Oxoid, UK) and fixed with 100 μl of 10% formaldehyde, 0.9% NaCl solution for at least one hour. The fixative was then removed and 100 μl of 1% methylene blue stain in 0.01 M borate buffer (pH 8.5) was added to each well and incubated for 30 min at room temperature. Excess stain was removed by four sequential washes in borate buffer. Methylene blue was eluted from the cells by the addition of 100 μl 1:1 (v/v) ethanol/0.1 HCl. […]

In the next assay the test system is p21. In words: p21 protein in proliferating C2C12 myoblasts (Western blot). Type of assay: cell-based, murine. Particulars: 0.1, 1, 10 μg/ml, 48 h, FIG. 6. On the procedure:
Thus, a decrease in p21 protein expression may indicate an increased cell proliferation rate. PCNA is a positive marker of cell proliferation. It is a subunit of DNA polymerase-delta during DNA replication in the cell cycle. Higher level of PCNA protein expression is associated with higher number of cells entering the DNA replication phase of the cell cycle.
C2C12 myoblasts were seeded in 10 cm diameter tissue culture plates (Nunc, Roskilde, Denmark) at a cell density of 3000 cells per cm^2 in 10 ml of Dulbecco's modified Eagle's medium (DMEM, Invitrogen, California) supplemented with foetal bovine serum (FBS, 10% v/v, Invitrogen), penicillin (1×105 IU/l, Sigma, St Louis, Mo., USA) and streptomycin (100 mg/l, Sigma) buffered with NaHCO3 containing phenol red (7.22 nmol/l) as a pH indicator, and incubated overnight at 37° C. with 5% CO2. The medium was replaced with the test medium: DMEM with 10% FBS supplemented with, 0.1, 1 or 10 μg/ml oMSV65 (n=3). The plates were then incubated at 37° C. with 5% CO2 for 48 hours. Cells were removed from the plate by trypsin treatment, washed with phosphate buffered saline (PBS, Oxoid, UK) and resuspended in 100 μl of lysis buffer (10 mM Hepes pH 7.9, 1.5 mM MgCl2, 10 mM KCl, 0.5% NP40, one Complete protease inhibitor tablet [Roche Diagnostics, USA] per 50 ml buffer). […] Band intensities were measured with a GS800 densitometer (BioRad, USA).

[1] abbreviates: roMSV47 1-10,000 ng/ml, 60 h, FIG. 10.

“Also recorded” adds a separate entry of the source.

From patent publication US8455448B2, “Myostatin isoform” (Myostin Therapeutics Pty Ltd, priority 2004, dated 2013) come the findings set out here.

Consider “roMSV47: 47 amino acid C-terminal mature ovine MSV fragment (SEQ ID NO: 50), recombinant from E. coli (IIFLEVYIQFCSILGEAVFKRQSKSIHFCQNFKIIACLCNTAAFRMK; Ovis aries)”, for which the “proliferation of murine C2C12 myoblasts” value in the assay on murine C2C12 myoblasts (0-10 μg/ml, DMEM 2.5% FBS, 80 h, FIG. 12A and FIG. 17) was “stimulate myoblast proliferation; also recorded: stimulate C2C12 cell growth in a dose dependent manner”. Also, in the assay on murine C2C12 myoblasts (setting [1]), the C2C12 myoblast proliferation result is “stimulates murine C2C12 myoblast proliferation” and the “concentration of maximum proliferation enhancing activity” value lay in the range of 0.1 to 0.5 µg/mL. Further, the “increase in myoblast proliferation” value in the assay on murine C2C12 myoblasts (roMSV47, 60 h, FIG. 10) is reported as “more than 2 fold”.

B1: roMSV65: 65 amino acid C-terminal peptide of ovine MSV (SEQ ID NO: 49) expressed as recombinant protein in E. coli (protein)
chain: VHFYTPPYGQWIFHKERKIIFLEVYIQFCSILGEAVFKRQSKSIHFCQNFKIIACLCNTAAFRMK
modifications: Ovis aries
For B1, the “p21 protein levels in proliferating C2C12 myoblasts” value with p21 is “dose-dependently decreases p21 protein levels”. Further, the “myoblast cell growth (proliferation)” value in the assay on murine C2C12 myoblasts (roMSV65 0 to 10 μg/ml, 72 h, FIG. 3A) is “stimulate myoblast cell growth in a dose dependent manner”. Moreover, the “proliferation of murine C2C12 myoblasts” value with murine C2C12 myoblasts (roMSV65 without myostatin, 48 h, FIG. 9) is “stimulated proliferation of murine myoblasts”.
